Experiments:
Format in all cases: cell-based
human dermal fibroblasts = assay: Fibroblast proliferation effect (SRB staining, absorbance at 560 nm); details: peptide at 10 µM, 50 µM or 100 µM, 72 hours, 37 °C, concentration-dependent, maximum increase (FIG. 1)
Procedure: To confirm the effect of a peptide consisting of the amino acid sequence of SEQ ID NO: 1 on promoting the proliferation of Fibroblasts. Specifically, human dermal fibroblasts were seeded in a 96-well plate at a density of 5x10^3 cells/well and cultured for 24 hours. After replacing with serum-free mesenchymal stem cell medium, the cells were cultured for 24 hours. The above peptide was treated at concentrations of 10 µM, 50 µM, or 100 µM, respectively, and incubated at 37 °C for 72 hours. As a positive control group, 50 nM of human recombinant FGF protein was treated. After completion of culturing, the culture supernatant was removed and the cells were fixed using ethanol. After washing with PBS, staining was performed by treating with SRB solution. After washing with 1 % acetic acid, cells were observed under a microscope and destained by treating with 20 mM tris solution. Cell viability was measured by measuring absorbance at a wavelength of 560 nm using a spectrophotometer (SpectraMax iD3, Molecular Devices (USA, CA)).
The results are illustrated in FIG. 1. From the results of FIG. 1, it may be confirmed that proliferation was induced in a concentration-dependent manner in the peptide treatment group, increasing by up to 1.62 times.

collagen type 1 = assay: Extracellular matrix expression by immunofluorescence (confocal, Image J): collagen type 1; details: human dermal fibroblasts; peptide at 10 µM, 50 µM or 100 µM, 48 hours; green fluorescence intensity; maximum increase (FIG. 2)
Procedure: (§1) To confirm the effect of a peptide consisting of the amino acid sequence of SEQ ID NO: 1 on increasing the expression of the dermal extracellular matrix. Specifically, human dermal fibroblasts were seeded in a 6-well plate at a density of 3x10^5 cells/well and cultured for 24 hours. After replacing with serum-free mesenchymal stem cell medium, the cells were cultured for 24 hours. A peptide was treated at concentrations of 10 µM, 50 µM, or 100 µM, respectively, and incubated at 37 °C for 48 hours. Human recombinant FGF protein was treated at 100 nM. After the culture was completed, the culture supernatant was removed and fixed with 4 % paraformaldehyde for 30 minutes. After washing with PBS, the cells were reacted with 0.5 % Triton X-100 for 15 minutes. After reacting with 3 % BSA for 1 hour, primary antibodies against collagen type 1, fibronectin, and elastin were diluted 1:100 and reacted overnight at 4 °C. Secondary antibody-FITC was diluted 1:500 and reacted at room temperature for 2 hours, followed by DAPI staining and mounting. The expression images of each marker were observed using a confocal microscope (Leica, Germany). Green fluorescence intensity was measured using Image J.
(§2) The results are illustrated in FIG. 2. […]

fibronectin = assay: Extracellular matrix expression by immunofluorescence (confocal, Image J): fibronectin; details: human dermal fibroblasts; peptide at 10 µM, 50 µM or 100 µM, 48 hours; green fluorescence intensity; maximum increase (FIG. 2)
Procedure: as §1, §2

elastin = assay: Extracellular matrix expression by immunofluorescence (confocal, Image J): elastin; details: human dermal fibroblasts; peptide at 10 µM, 50 µM or 100 µM, 48 hours; green fluorescence intensity; maximum increase (FIG. 2)
Procedure: as §1, §2

## AERRREKCRC [peptide]
Human dermal fibroblasts
  proliferation increase: up to 1.62 times
Collagen type 1
  collagen type 1 expression increase compared to the control group: up to 1.32 times
fibronectin
  fibronectin expression increase compared to the control group: up to 1.38 times
elastin
  elastin expression increase compared to the control group: up to 2 times

Reference: EP4692107A1, “PEPTIDE HAVING SKIN CONDITION IMPROVEMENT ACTIVITY AND USE THEREOF” (Caregen Co., Ltd., priority 2023, dated 2026)
